Assay [1] relates to U2OS-ERα cells. Briefly: KRT19 mRNA real-time PCR in U2OS-ERα cells. It is filed as cell-based, human. The conditions noted are these: for KRT19 gene expression, compound alone: 10 nM E2, 5 μM 2′,3′,4′-THC, 1 μM tamoxifen or raloxifene, 24 hours; for effect on E2-induced KRT19 expression: in combination with 10 nM E2, 24 hours. The protocol: (§1) (FIG. 1a) Chemical structure of 2′, 3′, 4′-THC. (FIG. 1b) U2OS cells cotransfected with ERE tk-luciferase and ERα (left panel) or ERβ (right panel). After transfection the cells were treated for 24 hours with 10 nM estradiol and 5 μM 2′, 3′, 4′-THC alone or in combination. Cells were lysed and luciferase activity was measured. RLU is relative light units. Error bars are the Mean±SEM. **P≤0.01. […] The total cellular RNA was extracted and real-time PCR for KRT19 mRNA was performed as described in Materials and Methods. […] Error bars are ±SEM. *P≤0.05, **** P≤0.0001.
FIGS. 3a-3d. […] Error bars are ±SEM.

For assay [2], the system named is U2OS-ERα cells. The assay can be described thus: NKG2E mRNA real-time PCR in U2OS-ERα cells. The class given is cell-based, human. The conditions noted are these: for NKG2E gene expression, compound alone: 10 nM E2, 5 μM 2′,3′,4′-THC, 1 μM tamoxifen or raloxifene. The procedure:
as §1
(§2) (FIGS. 6a, 6b) Gene expression of (FIG. 6a) KRT73 and (FIG. 6b) NKG2E in U2OS-ERα cells treated with 10 nM estradiol, 5 μM 2′, 3′, 4′-THC, 1μM ICI alone or in combination for 24 hours. […] Error bars are ±SEM. […] After transfection, luciferase activities were measured as described in the Methods. RLU is relative light units and the data shown are mean ±SEM. (FIG. 6c). […] After transfection, luciferase activities were measured as described in the Methods. RLU is relative light units and the data shown are mean ±SEM (FIG. 6d).

Assay [3] has as its system U2OS-ERα cells. Briefly: Microarray gene regulation in U2OS-ERα cells. The class given is cell-based, human. The procedure: Total cellular RNA was isolated utilizing the Aurum™ RNA isolation kit (Bio-Rad, Hercules, Calif.) per the manufacturer's directions. RNA isolates were first quantified by nanodrop®, and then qualitatively evaluated by the Bio-Rad Experion™ system per the manufacturer's instructions. Biotin-labeled cRNA samples were prepared using 750 ng of total RNA. Biotin-labeled samples were evaluated by both 260/280 absorbance spectrophotometry and capillary electrophoresis. Labeled cRNA samples were hybridized overnight against Human genome HG U133A-2.0 GeneChip® arrays, (Affymetrix, Santa Clara, Calif.). All treatments were done in triplicate with the same batch of microarrays. The data was analyzed as previously described (Saunier, E. F., et al. Estrogenic plant extracts reverse weight gain and fat accumulation without causing mammary gland or uterine proliferation. PloS one 6, e28333 (2011)).
FIGS. 2a-2f2′, 3′, 4′-THC behaves as a unique coagonist on gene expression in U2OS-ERα cells. […] Expression was assessed by up regulation or down regulation of 3-fold or more and a P-value≤0.05. […] Error bars are ±SEM.

The test system of assay [4] is U2OS-ERα cells. The assay can be described thus: Real-time PCR of unique genes FGR, KCNK6, KRT73 in U2OS-ERα cells. The class given is cell-based, human. The procedure:
Expression was assessed by up regulation or down regulation of 3-fold or more and a P-value≤0.05. […] Error bars are ±SEM.
as §2

The next assay deals with mouse uterus. The assay can be described thus: Ovariectomized (OVX) mouse model, osmotic pump. It is filed as in vivo. The conditions noted are these: OVX mice, 4 weeks. The protocol:
8 week old C57b1/6J female ovariectomized or intact mice were purchased from Jackson Laboratories, Sacramento, Calif. Mice were housed and maintained according to OLAC standard procedures in the NAF facility at UC Berkeley, Calif. All mice were fed a soy-free chow diet 2916.15 (Harlan Laboratories, Livermore, Calif.) starting one week before osmotic pump implantation or 2′, 3′, 4′-THC injection. Pumps Model 2006 were purchased from Alzet and filled with vehicle, 1 μg […], 2 mg of 2′, 3′, 4′-THC or the combination of 2′, 3′, 4′-THC and estradiol. All drugs were dissolved in sterile vehicle consisting of 50% dimethylsulfoxide (DMSO), 25% ETOH and 25% deionized water. Pumps were handled with sterile gloves and filled using a 27 gauge filling tube and 1 mL syringe. All pumps were placed in 1X PBS in 15 mL sterile conical tubes and incubated overnight at 37° . Pumps were surgically implanted into 8 week old C57b1/6J female ovariectomized mice (Jackson Laboratory, Sacramento, Calif.) posterior to the scapula and left for a duration of 4 weeks. Intact mice were injected intraperitoneal with 2′, 3′, 4′-THC every day for 3 weeks. Mice were weighed once a week for the duration of the experiment. The intraperitoneal gonadal fat was removed and weighed. Uterine tissue was collected, fluid drained and then weighed.
Tissues were dissected and immediately frozen in liquid nitrogen. Before RNA isolation, tissues were homogenized in PureZOL™ using the MP FastPrep™-24 for 40 seconds.
Uterine Tissue Slide Preparation Uterine tissue was removed and trimmed of excess adipose tissue. Tissues were fixed in formalin for 24 hours then transferred to 50% ETOH for 1 hour followed by 70% ethanol (ETOH) for another hour. After fixation tissues were sent to Histopathology Reference Laboratory, Hercules Calif. where they were paraffin embedded, sectioned and stained with hematoxylin and eosin for morphological exam
FIGS. 5a-5h. 2′, 3′, 4′-THC acts as antagonist in the mouse uterus. Uterine weights of intact (FIG. 5a) and OVX (FIG. 5b) mice. […] (FIG. 5h) Total body weight of OVX mice after 4 week treatment. Error bars are ±SEM.

In a further assay the test system is MCF-7 cells. The assay can be described thus: MCF-7 cell proliferation (cell counting). The settings on record: 5 days.
Another assay has as its target ERα (Homo sapiens, UniProt P03372). The assay can be described thus: NKG2E-TK-Luc transfection assay, U2OS cells cotransfected with ERα. The conditions noted are these: 5 μM 2′,3′,4′-THC + 10 or 100 nM estrogen, 24 hours. Details: expressed in transfected cells; host or cells: U2OS. The class given is cell-based. The procedure: FIG. 7a-7e. […] (C) U2OS cells cotransfected with GRE-TK-Luc and human (h) GR and treated with 10 nM of dexamethasone (Dex) and 5 μM of 2′, 3′, 4′-THC alone or in combination for 24 hours. (D) U2OS cells cotransfected with human tyrosine aminotransferase (TATS)-luciferase reporter gene and hAR and treated with 10 nM of dihydrotestosterone (DHT) and 5 μM of 2′, 3′, 4′-THC alone or in combination for 24 hours. (E) U2OS cells cotransfected with TAT3-luciferase reporter gene and hPR-B and treated with 10 nM of progesterone (Prog) and 5 μM of 2′, 3′, 4′-THC alone or in combination for 24 hours. After transfection, luciferase activities were measured as described in the Methods. RLU is relative light units and the data shown are mean±SEM.
as §2

The mark [5] stands for this setting: 1 μM ICI, 10 nM estradiol, 5 μM 2′,3′,4′-THC, 24 hours.

Each structure is given as a SMILES string.

Results on seven compounds are retold here after patent US20190008797A1, “ESTROGEN RECEPTOR ALPHA COLIGANDS, AND METHODS OF USE THEREOF” (priority 2016, published 2019).

Chain of ERα (P03372 whole entry): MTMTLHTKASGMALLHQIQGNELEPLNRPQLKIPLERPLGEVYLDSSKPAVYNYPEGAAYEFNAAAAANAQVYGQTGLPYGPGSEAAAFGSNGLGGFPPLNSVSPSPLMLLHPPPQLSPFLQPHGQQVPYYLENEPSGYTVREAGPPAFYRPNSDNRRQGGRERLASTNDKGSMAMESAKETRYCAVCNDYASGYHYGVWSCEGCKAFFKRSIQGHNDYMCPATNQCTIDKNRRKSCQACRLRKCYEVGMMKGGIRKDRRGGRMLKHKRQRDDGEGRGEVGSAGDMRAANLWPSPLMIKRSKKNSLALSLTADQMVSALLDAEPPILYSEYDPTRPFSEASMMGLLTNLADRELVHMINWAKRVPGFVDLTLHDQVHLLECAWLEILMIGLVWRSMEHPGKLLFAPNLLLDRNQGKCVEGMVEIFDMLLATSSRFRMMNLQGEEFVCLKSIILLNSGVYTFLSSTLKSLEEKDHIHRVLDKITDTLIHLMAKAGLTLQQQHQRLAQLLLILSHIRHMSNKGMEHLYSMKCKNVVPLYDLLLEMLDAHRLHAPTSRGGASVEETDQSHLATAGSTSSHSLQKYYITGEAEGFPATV

On to `C[C@]12CC[C@@H]3c4ccc(O)cc4CC[C@H]3[C@@H]1CC[C@@H]2O` [E2, 17β-estradiol, reference compound], for which the “KRT19 gene expression, compound alone” value with U2OS-ERα cells [1] is “induced”. In addition, the “NKG2E gene expression, compound alone” value with U2OS-ERα cells [2] (24 hours) is “activated”. The “genes uniquely regulated by E2 alone” value with U2OS-ERα cells [3] (10 nM E2) is 222 genes. Also, in the assay on U2OS-ERα cells [3] (10 nM E2 or 5 μM 2′,3′,4′-THC, 3-fold or more, P≤0.05), the “number of genes regulated, compound alone” value turned out to be 756 genes. In addition, in the assay on U2OS-ERα cells [4] (E2 alone, 24 hrs), the “E2 dose at which FGR activation was observed” value is reported as 10 nM, the KCNK6 regulation result is reported as “not regulated” and the KRT73 regulation entry is “not regulated”. Further, the “H & E staining of uterus, compound alone” value in the assay with mouse uterus is reported as “increased the number of cells lining the duct”. For the same compound, the “amount of gonadal adipose tissue fat” value with mouse uterus (E2 alone) is on record as “decreased”. Besides, the “uterine size / uterine weight, compound alone” value in the assay with mouse uterus (osmotic pump) is “large increase”. In the assay with MCF-7 cells, the “MCF-7 cell proliferation, compound alone” value is “increased”.
Take `COc1cc2c(cc1O)CC[C@@H]1[C@@H]2CC[C@]2(C)[C@@H](O)CC[C@@H]12` [2-methoxyestradiol, reference compound]: the “synergistic action of 2′,3′,4′-THC on NKG2E-TK-Luc with the named estrogen” value (from here on “synergistic action of 2′,3′,4′-THC”) at ERα is “smaller synergistic activation”.
For the compound `C[C@]12CC[C@@H]3c4ccc(O)c(O)c4CC[C@H]3[C@@H]1CC[C@@H]2O` [4-hydroxyestradiol, reference compound], the “synergistic action of 2′,3′,4′-THC” value on ERα is on record as “synergistic action”.
Turning to `O=C(c1ccc(OCCN2CCCCC2)cc1)c1c(-c2ccc(O)cc2)sc2cc(O)ccc12` [raloxifene], in the assay with U2OS-ERα cells [1], the “KRT19 gene expression, compound alone” value is “no effect” and the “effect on E2-induced KRT19 expression” value is given as “blocked”. The “NKG2E gene expression, compound alone” value with U2OS-ERα cells [2] (24 hours) was “activated”. Moreover, the “effect on E2-induced NKG2E gene expression” value in the assay with U2OS-ERα cells [2] (in combination with 10 nM E2, 24 hours) is reported as “antagonized”.
As for `C[C@]12CC[C@@H]3c4cc(O)c(O)cc4CC[C@H]3[C@@H]1CC[C@@H]2O` [2-hydroxyestradiol, reference compound], the “synergistic action of 2′,3′,4′-THC” value at ERα is on record as “synergistic action”.
`C[C@]12CC[C@@H]3c4ccc(O)cc4C[C@@H](CCCCCCCCC[S+]([O-])CCCC(F)(F)C(F)(F)F)[C@H]3[C@@H]1CC[C@@H]2O` (some centres unmarked) [ICI 182,780]: the “effect on induction of NKG2E by the 2′,3′,4′-THC/E2 combination” value in the assay on U2OS-ERα cells [2] (setting [5]) is on record as “blocked”. Also, in the assay with U2OS-ERα cells [4] (setting [5]), the “effect on induction of KRT73 by the 2′,3′,4′-THC/E2 combination” value is reported as “blocked”.
Regarding `CC/C(=C(\c1ccccc1)c1ccc(OCCN(C)C)cc1)c1ccccc1` [tamoxifen], in the assay on U2OS-ERα cells [1], the “KRT19 gene expression, compound alone” value is given as “no effect” and the “effect on E2-induced KRT19 expression” value was “blocked”. Moreover, in the assay with U2OS-ERα cells [2] (24 hours), the “NKG2E gene expression, compound alone” value is on record as “activated”.
